Test results taken from patent publication US5079358A, “6H-pyrazolo-[4,5,1-d,e]acridin-6-one derivatives having anit-tumor activity” (Kyowa Hakko Kogyo Co., Ltd., priority 1988, dated 1992).
In brackets after ≈: the same amount, converted by molar mass.

Key:
[1] = Acute toxicity (LD50), single intravenous administration to male ddy mice; conditions: mouse, in vivo, 14 days observation, Probit's method
Method: A test compound was administered intravenously once to male ddy mice. One test group comprised ten mice. […] LD50 was calculated from the death rate of each group in accordance with Probit's method.

P388 ascites tumor = assay: Effect on P388 ascites tumor (increased life span); assay type: in vivo; conditions: P388, ip, intraperitoneal, 24 hours after implantation, male CDF1 mouse
Method: Effect on P388 ascites tumor:
P388 tumor cells (10^6 cells) were implanted intraperitoneally into a DBA/2 mouse and the cells were collected from the ascitic fluid of the animal 7 days after the implantation. The cells were ashed once with sterilized physiological saline solution and then suspended in a sterilized physiological saline solution to prepare a cell suspension containing 5×10^6 cells/ml. The suspension (0.2 ml) was intraperitoneally inoculated into a male CDF1 mouse aged 6 weeks. A test compound was dissolved in physiological saline solution and intraperitoneally administered to the animal 24 hours after implantation of the tumor cells. One test group comprised 5 mice. The mean survival time (days) of a test group which received a test compound at a specified concentration was calculated as T from survival days of animals in the group. ON the other hand, the mean survival time (days) of the non-administered group (C) was obtained in the same manner, and the increased life span (ILS %) was calculated as [(T-C)/C]×100 (%).

[2] = tested on: human cancer cells (HeLaS3); assay: Inhibitory effect on growth of human cancer cells (HeLaS3); assay type: cell-based; conditions: Homo sapiens, HeLa S3, 72 hours at 37° C., Neutral Red staining, 550 nm, read-out: IC50
Method: Inhibitory effect on growth of human cancer cells (HeLaS3):
HeLaS, cells were suspended in a medium comprising MEM medium (Nissui Pharmaceutical Co., Ltd.) and 2 mM glutamine (hereinafter referred to as Medium A) to a concentration of 3×10^4 cells/ml. The cell suspension thus prepared was put into wells of a 96-well microtiter plate in an amount of 0.1 ml/well. The cells on the plate were incubated in a CO2 -incubater at 37° C. for 20 hours, and 0.05 ml of a sample containing a test compound and appropriately diluted with Medium A was added to each well. The cells were further incubated in the CO2 -incubater at 37° C. for 72 hours. After the culture supernatant was removed, a medium comprising Medium A and 0.02% Neutral Red was added to the residue in an amount of 0.1 ml/well, followed by incubation at 37° C. for one hour in the CO2 -incubater, whereby the cells were stained. The culture supernatant was removed and the residue was washed once with physiological saline solution. The pigment was extracted with 0.001 N-HCl/30%-ethanol, and the absorbance was determined at 550 nm with a microplate reader. The absorbance determined for intact cells was compared with that for the cells treated with the test compound of a known concentration, and the concentration of the test compound for inhibiting 50% growth of the cells (IC50) was calculated.

SMILES | IC50 [2] [ng/mL] | LD50 at 336 h [1] [mg/kg] | ILS at 25 mg/kg (P388 ascites tumor) [%] | also measured
NCCNCc1nn2c3cccc(O)c3c(=O)c3c(NCCN)ccc1c32 [Compound 28, 5-(2-Aminoethyl)amino-2-(2-aminoethyl)aminomethyl-7-hydroxy-6H-pyrazolo[4,5,1-d,e]acridin-6-one] | – | 15.7 | – | ILS at 12.5 mg/kg (P388 ascites tumor; dose 12.5 mg/kg): > 154%
NCCNCc1nn2c3cccc(O)c3c(=O)c3c(NCCNCCO)ccc1c32 [Compound 46, 2-(2-Aminoethyl)aminomethyl-7-hydroxy-5-[2-(2-hydroxyethylamino)ethyl]amino-6H-pyrazolo[4,5,1-d,e]acridin-6-one] | 3 (≈ 7.31 nM) | – | > 156 | –
CN(C)CCNc1ccc2c(CN(CCO)CCO)nn3c4cccc(O)c4c(=O)c1c23 [Compound 51, 2-Bis(2-hydroxyethyl)aminomethyl-5-(2-dimethylaminoethyl)amino-7-hydroxy-6H-pyrazolo[4,5,1-d,e]acridin-6-one] | – | 15.7 | > 186 | –
NCCNc1ccc2c(CN(CCO)CCO)nn3c4cccc(O)c4c(=O)c1c23 [Compound 53, 5-(2-Aminoethyl)amino-2-bis(2-hydroxyethyl)aminomethyl-7-hydroxy-6H-pyrazolo[4,5,1-d,e]acridin-6-one] | – | 25 | > 100 | –

Further lines, with some results ahead:

IC50 [2] [ng/mL] | SMILES | LD50 at 336 h [1] [mg/kg] | ILS at 25 mg/kg (P388 ascites tumor) [%] | also measured
2.6 (≈ 6.35 nM) | NCCNCCNc1ccc2c(CNCCN)nn3c4cccc(O)c4c(=O)c1c23 [Compound 48, 5-[2-(2-Aminoethylamino)ethyl]amino-2-(2-aminoethyl)aminomethyl-7-hydroxy-6H-pyrazolo[4,5,1-d,e]acridin-6-one] | – | – | ILS at 50 mg/kg (P388 ascites tumor; dose 50 mg/kg): > 200%
260 (≈ 513 nM) | O=c1c2c(O)cccc2n2nc(CNCCN3CCOCC3)c3ccc(NCCN4CCOCC4)c1c32 [Compound 56, 7-Hydroxy-5-(2-morpholinoethyl)amino-2-(2-morpholinoethyl)aminomethyl-6H-pyrazolo[4,5,1-d,e]acridin-6-one] | – | – | ILS at 100 mg/kg (P388 ascites tumor; dose 100 mg/kg): 121%
